Results as given in ChEMBL document CHEMBL1201862, “PubChem BioAssay data set” (2004).
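Results reflect a 48-hour exposure of cells in 96-well plates to compound at five concentrations. Here, GI50 denotes the concentration required for 50% inhibition of growth.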 Active and inactive are the calls of the source. No stated cut-off is given here; in the data, active = GI50 up to about 1.1 µM and inactive = higher.

How the values were obtained:
Assay in all cases: inhibition of tumour cell growth, NCI panel, 48 h
A549 = test system: A549
BT-549 = test system: BT-549
CCRF-CEM = test system: CCRF-CEM
HCT-116 = test system: HCT-116
HOP-92 = test system: HOP-92
HT-29 = test system: HT-29
Hs-578T = test system: Hs-578T
IGROV-1 = test system: IGROV-1
K562 = test system: K562
LOX IMVI = test system: LOX IMVI
M14 = test system: M14
MCF7 = test system: MCF7
MDA-N = test system: MDA-N
NCI-H23 = test system: NCI-H23
NCI/ADR-RES = test system: NCI/ADR-RES
RPMI-8226 = test system: RPMI-8226
SF-539 = test system: SF-539
SK-MEL-2 = test system: SK-MEL-2
SNB-75 = test system: SNB-75
UACC-62 = test system: UACC-62

| Structure (SMILES) | GI50 (A549) | GI50 (BT-549) | GI50 (CCRF-CEM) | GI50 (HCT-116) | GI50 (HOP-92) | GI50 (HT-29) | GI50 (Hs-578T) | GI50 (IGROV-1) | GI50 (K562) | GI50 (LOX IMVI) | GI50 (M14) | GI50 (MCF7) | GI50 (MDA-N) | GI50 (NCI-H23) | GI50 (NCI/ADR-RES) | GI50 (RPMI-8226) | GI50 (SF-539) | GI50 (SK-MEL-2) | GI50 (SNB-75) | GI50 (UACC-62) |
| --- | --- | --- | --- | --- | --- | --- | --- | --- | --- | --- | --- | --- | --- | --- | --- | --- | --- | --- | --- | --- |
| Clc1ccc2oc(CCc3ccccc3)nc2c1 | 36.6 µM (inactive) | 49.5 µM (inactive) | 29.8 µM (inactive) | 36.2 µM (inactive) | 49.4 µM (inactive) | 33.4 µM (inactive) | > 100 µM (inactive) | 51.3 µM (inactive) | 49.9 µM (inactive) | > 100 µM (inactive) | 59.8 µM (inactive) | 38 µM (inactive) | 50.1 µM (inactive) | 45.8 µM (inactive) | 40.8 µM (inactive) | 46.1 µM (inactive) | > 100 µM (inactive) | 30.6 µM (inactive) | 17.8 µM (inactive) | > 100 µM (inactive) |
| C=CCNC1=C2C[C@@H](C)C[C@@H](OC)[C@H](OC(=O)CCN(C)C)[C@H](C)/C=C(\C)[C@@H](OC(N)=O)[C@H](OC)/C=C\C=C(/C)C(=O)NC(=CC1=O)C2=O | 0.0559 µM (active) | 12.9 µM (inactive) | 3.09 µM (inactive) | 0.134 µM (active) | 8.41 µM (inactive) | < 0.01 µM (active) | 12.1 µM (inactive) | 0.13 µM (active) | 0.156 µM (active) | 0.0993 µM (active) | 0.0622 µM (active) | 0.0295 µM (active) | 0.0386 µM (active) | 0.0547 µM (active) | 8.51 µM (inactive) | 1.15 µM (inactive) | 0.0562 µM (active) | 0.059 µM (active) | 0.1 µM (active) | 0.0545 µM (active) |
| CC(=O)OC(Cc1ccc2ccccc2n1)(C(F)(F)F)C(F)(F)F | 9.53 µM (inactive) | 1.6 µM (inactive) | 0.0728 µM (active) | 1.31 µM (inactive) | 0.142 µM (active) | 1.27 µM (inactive) | 1.35 µM (inactive) | 1.31 µM (inactive) | 0.594 µM (active) | 0.267 µM (active) | 1.23 µM (inactive) | 0.063 µM (active) | 1.17 µM (inactive) | 1.58 µM (inactive) | 1.72 µM (inactive) | 0.0272 µM (active) | 2.32 µM (inactive) | 1.36 µM (inactive) | 4.36 µM (inactive) | 1.32 µM (inactive) |
| COc1cc(/C=C(\C#N)C(N)=C(C#N)C#N)cc(O)c1O | > 100 µM (inactive) | > 100 µM (inactive) | 22.7 µM (inactive) | > 70.5 µM (inactive) | > 68.4 µM (inactive) | > 83.9 µM (inactive) | 42.9 µM (inactive) | > 66.8 µM (inactive) | > 79.6 µM (inactive) | > 61.4 µM (inactive) | > 100 µM (inactive) | 95.3 µM (inactive) | 68.2 µM (inactive) | > 100 µM (inactive) | > 100 µM (inactive) | > 100 µM (inactive) | > 100 µM (inactive) | > 100 µM (inactive) | > 88.5 µM (inactive) | > 93.5 µM (inactive) |
| O=C1/C(=C/c2ccc(O)cc2)CCc2ccc([N+](=O)[O-])cc21 | 45 µM (inactive) | 31.3 µM (inactive) | 0.419 µM (active) | 75.5 µM (inactive) | 29.1 µM (inactive) | > 100 µM (inactive) | 35.9 µM (inactive) | 61.2 µM (inactive) | > 100 µM (inactive) | > 100 µM (inactive) | > 100 µM (inactive) | > 33.3 µM (inactive) | > 100 µM (inactive) | 36.1 µM (inactive) | 73.5 µM (inactive) | 2.07 µM (inactive) | > 90.6 µM (inactive) | 66.5 µM (inactive) | 53.2 µM (inactive) | > 74.3 µM (inactive) |
| O=c1c2ccccc2[nH]c(=S)n1-c1ccc(/N=N/c2cccc3c(O)cccc23)cc1 | > 100 µM (inactive) | > 100 µM (inactive) | > 100 µM (inactive) | > 100 µM (inactive) | > 100 µM (inactive) | > 100 µM (inactive) | > 100 µM (inactive) | 55.3 µM (inactive) | 36.2 µM (inactive) | 39 µM (inactive) | 50.8 µM (inactive) | 13.5 µM (inactive) | 34.4 µM (inactive) | > 100 µM (inactive) | > 100 µM (inactive) | 65.3 µM (inactive) | > 100 µM (inactive) | > 100 µM (inactive) | > 100 µM (inactive) | 24.4 µM (inactive) |
| CC(C)=CCc1cc(C2COc3cc4c(c(O)c3C2=O)C=CC(C)(C)O4)c(O)cc1O (stereo not given) | 12.7 µM (inactive) | 16.3 µM (inactive) | 7.53 µM (inactive) | 17.3 µM (inactive) | 16.7 µM (inactive) | 16.6 µM (inactive) | 17.8 µM (inactive) | 16.2 µM (inactive) | 3.08 µM (inactive) | 17.7 µM (inactive) | 13.4 µM (inactive) | 11.8 µM (inactive) | 14.4 µM (inactive) | 15.6 µM (inactive) | 22.6 µM (inactive) | 6.43 µM (inactive) | 16.5 µM (inactive) | 17.7 µM (inactive) | 19.1 µM (inactive) | 15.7 µM (inactive) |
| Cc1c(C)c(CC(=O)N2CC2)c(C)c(C)c1CC(=O)N1CC1 | 7.28 µM (inactive) | 21.9 µM (inactive) | 1.15 µM (inactive) | 9.02 µM (inactive) | 9.48 µM (inactive) | 6.93 µM (inactive) | 30.3 µM (inactive) | 17.1 µM (inactive) | 12.6 µM (inactive) | 5.19 µM (inactive) | 5.25 µM (inactive) | 3.22 µM (inactive) | 13.8 µM (inactive) | 2.77 µM (inactive) | 11 µM (inactive) | 10.6 µM (inactive) | 3.52 µM (inactive) | 16 µM (inactive) | 6.73 µM (inactive) | 3.33 µM (inactive) |
| O=C1c2c(Br)sc(Br)c2[C@@H](O)[C@H]1O | 20.9 µM (inactive) | 17.9 µM (inactive) | 2.32 µM (inactive) | 16.8 µM (inactive) | 19.2 µM (inactive) | 19.1 µM (inactive) | 23.1 µM (inactive) | 18.2 µM (inactive) | 2.91 µM (inactive) | 7.13 µM (inactive) | 13.1 µM (inactive) | 17.1 µM (inactive) | 16.3 µM (inactive) | 7.21 µM (inactive) | 22.4 µM (inactive) | 21.7 µM (inactive) | 15.9 µM (inactive) | 17.1 µM (inactive) | 15.4 µM (inactive) | 16.7 µM (inactive) |
| O=c1[nH]c(=O)n(C2CC(O)C(CO)O2)c2nc3ccc4cc5ccccc5cc4c3nc12 (stereo not given) | > 100 µM (inactive) | > 100 µM (inactive) | > 100 µM (inactive) | > 100 µM (inactive) | > 100 µM (inactive) | > 100 µM (inactive) | > 100 µM (inactive) | > 100 µM (inactive) | > 100 µM (inactive) | 14.8 µM (inactive) | > 100 µM (inactive) | > 100 µM (inactive) | > 100 µM (inactive) | > 100 µM (inactive) | > 100 µM (inactive) | > 100 µM (inactive) | > 100 µM (inactive) | > 100 µM (inactive) | > 100 µM (inactive) | > 100 µM (inactive) |
| COc1c(OC(C)=O)c(OC(C)=O)cc2c1-c1ccc(SC)c(=O)cc1C(NC(C)=O)CC2 (stereo not given) | 4.19 µM (inactive) | 0.201 µM (active) | 0.384 µM (active) | 0.685 µM (active) | 0.425 µM (active) | 0.461 µM (active) | 0.22 µM (active) | 0.933 µM (active) | 0.316 µM (active) | 1.81 µM (inactive) | 0.698 µM (active) | 0.124 µM (active) | 0.163 µM (active) | 0.392 µM (active) | > 76.6 µM (inactive) | 0.416 µM (active) | 0.254 µM (active) | 0.31 µM (active) | 0.299 µM (active) | 0.397 µM (active) |
| COC(=O)c1c(C)cccc1C1CN=NC12Cc1cccc(C)c1C2=O (stereo not given) | 18.9 µM (inactive) | 23.6 µM (inactive) | 19.8 µM (inactive) | 28 µM (inactive) | 14.8 µM (inactive) | 33 µM (inactive) | > 100 µM (inactive) | 27.7 µM (inactive) | 25.9 µM (inactive) | 13.6 µM (inactive) | 10.4 µM (inactive) | 30.8 µM (inactive) | 33.6 µM (inactive) | 32.2 µM (inactive) | 21.7 µM (inactive) | 17.2 µM (inactive) | 22.8 µM (inactive) | 32.7 µM (inactive) | 38.4 µM (inactive) | 26.9 µM (inactive) |
| Cc1ccc(-c2n[nH]c(=O)[nH]2)cc1[N+](=O)[O-] | > 100 µM (inactive) | 36.8 µM (inactive) | > 100 µM (inactive) | > 100 µM (inactive) | > 100 µM (inactive) | > 100 µM (inactive) | 3.01 µM (inactive) | > 100 µM (inactive) | > 100 µM (inactive) | > 100 µM (inactive) | > 100 µM (inactive) | > 100 µM (inactive) | > 100 µM (inactive) | > 100 µM (inactive) | > 100 µM (inactive) | > 100 µM (inactive) | > 100 µM (inactive) | > 100 µM (inactive) | 61 µM (inactive) | > 100 µM (inactive) |
